Biological target: 4-hydroxyphenylpyruvate dioxygenase (Sus scrofa, UniProt Q02110)
Assay: In vitro inhibitory activity against HPPD(4-hydroxyphenylpyruvate Dioxygenase) from pig liver using enol borate assay method

Sequence of 4-hydroxyphenylpyruvate dioxygenase (Q02110 whole entry): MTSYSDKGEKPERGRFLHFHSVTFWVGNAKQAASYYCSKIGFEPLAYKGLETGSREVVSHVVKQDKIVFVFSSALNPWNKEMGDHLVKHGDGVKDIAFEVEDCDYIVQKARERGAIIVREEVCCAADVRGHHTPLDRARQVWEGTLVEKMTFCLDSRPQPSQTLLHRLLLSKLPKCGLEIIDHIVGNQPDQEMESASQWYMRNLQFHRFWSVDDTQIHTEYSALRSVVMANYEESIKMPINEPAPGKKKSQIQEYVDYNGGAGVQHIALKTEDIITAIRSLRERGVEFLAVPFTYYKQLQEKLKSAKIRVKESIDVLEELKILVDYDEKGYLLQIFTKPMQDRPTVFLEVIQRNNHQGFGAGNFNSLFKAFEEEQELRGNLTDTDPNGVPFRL

Row | IC50 | SMILES
1 | 0.03 µM | O=C1C=C(OC(=O)C2CC2)CCC1
2 | 4.16 µM | CC(C)C(=O)OC1=CC(=O)CCC1
3 | 3.62 µM | CC(=O)OC1=CC(=O)CCC1
